Results published in ChEMBL document CHEMBL1201862, “PubChem BioAssay data set” (2004).
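96-well plates; 48 h exposure; 5 concentrations. Endpoints by linear interpolation between flanking doses. Not reached: highest tested concentration assigned. GI50 marks 50% less growth.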 The source made the active and inactive calls. Cut-off read from the data, not from the text of the source: active = GI50 up to about 1.1 µM and inactive = higher.

Key:
Experiment in all cases: inhibition of tumour cell growth, NCI panel, 48 h
SNB-19 = test system: SNB-19
SF-268 = test system: SF-268
A549 = test system: A549
SN12C = test system: SN12C
RPMI-8226 = test system: RPMI-8226
SR = test system: SR
SK-MEL-28 = test system: SK-MEL-28
KM12 = test system: KM12
SW-620 = test system: SW-620
NCI-H460 = test system: NCI-H460
U-251 = test system: U-251
SK-MEL-2 = test system: SK-MEL-2
UACC-62 = test system: UACC-62
OVCAR-8 = test system: OVCAR-8
UO-31 = test system: UO-31
SF-539 = test system: SF-539

Measured: GI50

CN1NC(c2ccccc2)=C(C#N)C(=O)CC1c1ccc(F)cc1 (configuration not stated)
inactive: SNB-19 > 100 µM | SF-268 > 100 µM | A549 > 100 µM | SN12C > 100 µM | RPMI-8226 > 100 µM | SR > 100 µM | SK-MEL-28 > 100 µM | KM12 > 100 µM | SW-620 > 100 µM | NCI-H460 > 100 µM | U-251 > 100 µM | SK-MEL-2 > 100 µM

NC1CCCCC1.O=C(O)C1(P(=O)(O)O)CC1
inactive: SNB-19 > 100 µM | SF-268 > 100 µM | A549 > 100 µM | SN12C > 100 µM | RPMI-8226 > 100 µM | UACC-62 > 100 µM | SK-MEL-28 > 100 µM | KM12 > 100 µM | SW-620 > 100 µM | OVCAR-8 > 100 µM | NCI-H460 > 100 µM | UO-31 > 100 µM | U-251 > 100 µM | SK-MEL-2 > 100 µM | SF-539 > 100 µM

CC(=O)OC1COC(n2c(=S)n(-c3ccc(C)cc3)c(=O)c3ccccc32)C(OC(C)=O)C1OC(C)=O (configuration not stated)
inactive: SNB-19 > 100 µM | SF-268 > 100 µM | A549 > 100 µM | SN12C > 100 µM | RPMI-8226 47.5 µM | UACC-62 > 100 µM | SK-MEL-28 > 100 µM | KM12 > 100 µM | SW-620 > 100 µM | OVCAR-8 68.2 µM | NCI-H460 > 100 µM | UO-31 > 100 µM | U-251 > 100 µM | SK-MEL-2 > 100 µM | SF-539 > 100 µM

O=S(=O)(N/N=C/c1cccc(/C=N/NS(=O)(=O)c2ccccc2)c1)c1ccccc1
inactive: SF-268 > 100 µM | A549 79.6 µM | SN12C > 100 µM | RPMI-8226 70.8 µM | SR 58.1 µM | UACC-62 85.9 µM | SK-MEL-28 88.7 µM | KM12 58.6 µM | OVCAR-8 55.5 µM | NCI-H460 68.7 µM | UO-31 46.7 µM | U-251 69.5 µM | SK-MEL-2 > 100 µM | SF-539 > 100 µM

Cc1[nH]c2ccccc2c1-c1n[nH]c(=O)c2ccccc12
inactive: A549 24.6 µM | RPMI-8226 20.8 µM | UACC-62 19.5 µM | SK-MEL-28 26.5 µM | KM12 11.3 µM | SW-620 16.1 µM | OVCAR-8 32.5 µM | NCI-H460 22.9 µM | UO-31 17.3 µM | U-251 31.5 µM | SK-MEL-2 31.7 µM | SF-539 24.3 µM

CCC1CCCCN1CC(C(C)=O)C(c1ccccc1)c1c(O)c2ccccc2oc1=O (configuration not stated)
inactive: SNB-19 > 100 µM | SF-268 > 100 µM | A549 > 100 µM | SN12C > 100 µM | RPMI-8226 69.5 µM | SR 80.7 µM | UACC-62 82.2 µM | SK-MEL-28 > 100 µM | KM12 > 100 µM | SW-620 > 100 µM | OVCAR-8 > 100 µM | NCI-H460 > 100 µM | UO-31 > 100 µM | U-251 > 100 µM | SK-MEL-2 > 100 µM | SF-539 > 100 µM

S=C1ON=C(c2ccccc2)/C1=C/Nc1ccccc1
inactive: SNB-19 > 100 µM | SF-268 > 100 µM | A549 > 100 µM | SN12C > 100 µM | RPMI-8226 > 100 µM | UACC-62 3.24 µM | SK-MEL-28 > 100 µM | KM12 23.2 µM | SW-620 > 100 µM | OVCAR-8 > 100 µM | NCI-H460 > 100 µM | UO-31 > 100 µM | U-251 > 100 µM | SK-MEL-2 > 100 µM | SF-539 97.7 µM

O=c1c(C(c2ccc([N+](=O)[O-])cc2)c2c(O)c3ccccc3n(-c3ccccc3)c2=O)c(O)c2ccccc2n1-c1ccccc1
inactive: SNB-19 7.28 µM | SF-268 15.3 µM | A549 15.5 µM | SN12C 11.7 µM | RPMI-8226 12.2 µM | SR 9.98 µM | UACC-62 3.76 µM | SK-MEL-28 16.5 µM | KM12 17.7 µM | SW-620 18.4 µM | OVCAR-8 14.9 µM | UO-31 8.51 µM | U-251 10.2 µM | SK-MEL-2 14.5 µM | SF-539 12.6 µM

CC1(C)CCc2cc3c(-c4ccccc4)cc(=O)oc3cc2O1
inactive: SNB-19 87.5 µM | SF-268 > 100 µM | SN12C > 100 µM | RPMI-8226 > 100 µM | UACC-62 > 100 µM | SK-MEL-28 > 100 µM | SW-620 > 100 µM | OVCAR-8 > 100 µM | NCI-H460 > 100 µM | UO-31 > 100 µM | U-251 > 100 µM | SK-MEL-2 > 100 µM | SF-539 38.5 µM

CNC(C)(C)Cc1ccc(Cl)cc1
inactive: SF-268 > 100 µM | A549 > 100 µM | SN12C > 100 µM | RPMI-8226 > 100 µM | UACC-62 > 100 µM | SK-MEL-28 > 100 µM | KM12 > 100 µM | SW-620 > 100 µM | OVCAR-8 > 100 µM | NCI-H460 > 100 µM | U-251 > 100 µM | SK-MEL-2 > 100 µM | SF-539 > 100 µM

NC(=O)C(=O)C1C(=O)N(c2ccccc2)N=C1N (configuration not stated)
inactive: SNB-19 > 100 µM | SF-268 > 100 µM | A549 > 100 µM | SN12C > 100 µM | RPMI-8226 > 100 µM | SR > 100 µM | UACC-62 > 100 µM | SK-MEL-28 > 100 µM | KM12 > 100 µM | SW-620 > 100 µM | OVCAR-8 > 100 µM | NCI-H460 > 100 µM | UO-31 > 100 µM | SK-MEL-2 > 100 µM | SF-539 > 100 µM

CC(C)C(C(=O)O)N(CC1(O)OCC(O)C(O)C1O)N=O (configuration not stated)
inactive: A549 > 100 µM | RPMI-8226 > 100 µM | UACC-62 > 100 µM | SK-MEL-28 > 100 µM | KM12 > 100 µM | SW-620 > 100 µM | OVCAR-8 > 100 µM | NCI-H460 > 100 µM | UO-31 > 100 µM | U-251 > 100 µM | SK-MEL-2 > 100 µM | SF-539 > 100 µM

CSc1nc2c(nc(N)n2C2OC(COC(C)=O)C(OC(C)=O)C(OC(C)=O)C2OC(C)=O)c(=O)n1C (configuration not stated)
inactive: SNB-19 > 100 µM | A549 > 100 µM | SN12C > 100 µM | RPMI-8226 > 100 µM | UACC-62 > 100 µM | KM12 > 100 µM | SW-620 > 100 µM | OVCAR-8 > 100 µM | NCI-H460 > 100 µM | UO-31 > 100 µM | U-251 > 100 µM | SK-MEL-2 > 100 µM | SF-539 > 100 µM

CC(C)(C)NCC(COc1ccc([N+](=O)[O-])cc1)OP(c1ccccc1)c1ccccc1 (configuration not stated)
inactive: SNB-19 38.7 µM | SF-268 49.1 µM | A549 40.6 µM | SN12C 36.6 µM | RPMI-8226 13.5 µM | UACC-62 44.4 µM | SK-MEL-28 55 µM | KM12 29.9 µM | SW-620 47.4 µM | OVCAR-8 34.8 µM | NCI-H460 35.8 µM | UO-31 20.6 µM | U-251 41.5 µM | SK-MEL-2 35.4 µM | SF-539 53.1 µM

CN(C)CC1(C)CC/C(=C\c2ccc3c(c2)OCO3)C1=O (configuration not stated)
inactive: SNB-19 > 100 µM | SF-268 > 100 µM | A549 > 100 µM | SN12C > 100 µM | RPMI-8226 27.5 µM | SR 45.9 µM | UACC-62 67.3 µM | SK-MEL-28 > 100 µM | KM12 > 100 µM | SW-620 92.9 µM | OVCAR-8 > 100 µM | NCI-H460 > 100 µM | UO-31 > 100 µM | U-251 > 100 µM | SK-MEL-2 > 100 µM | SF-539 > 100 µM

Clc1ccc2c(c1)-c1c3c(nn1-c1ccccc1)-c1ccccc1SC3O2 (configuration not stated)
inactive: SF-268 > 100 µM | A549 > 100 µM | RPMI-8226 > 100 µM | SK-MEL-28 > 100 µM | KM12 > 100 µM | SW-620 > 100 µM | OVCAR-8 > 100 µM | NCI-H460 > 100 µM | UO-31 > 100 µM | U-251 > 100 µM | SK-MEL-2 > 100 µM | SF-539 > 100 µM

NC1CCC2(O)c3ccccc3C2C1 (configuration not stated)
inactive: SNB-19 > 100 µM | SF-268 > 100 µM | A549 > 100 µM | SN12C > 100 µM | RPMI-8226 > 100 µM | SR > 100 µM | UACC-62 > 100 µM | SK-MEL-28 > 100 µM | KM12 > 100 µM | SW-620 > 100 µM | OVCAR-8 > 100 µM | NCI-H460 > 100 µM | UO-31 > 100 µM | U-251 > 100 µM | SK-MEL-2 > 100 µM

O=c1c2ccccc2[nH]c2cc(O)cc(O)c12
inactive: SNB-19 > 100 µM | SF-268 93.8 µM | A549 92.5 µM | SN12C 61.4 µM | UACC-62 > 100 µM | SK-MEL-28 > 100 µM | KM12 34.9 µM | OVCAR-8 30.6 µM | NCI-H460 32.8 µM | UO-31 21 µM | U-251 79.3 µM | SK-MEL-2 81.7 µM | SF-539 41.5 µM

NC(N)=NN/C(=C1/N=c2ccc([N+](=O)[O-])cc2=NC1=O)C(O)c1ccco1 (configuration not stated)
inactive: SNB-19 > 100 µM | SF-268 > 100 µM | A549 > 100 µM | SN12C > 100 µM | RPMI-8226 43.7 µM | SR > 100 µM | UACC-62 > 100 µM | SK-MEL-28 > 100 µM | KM12 > 100 µM | SW-620 > 100 µM | OVCAR-8 > 100 µM | NCI-H460 > 100 µM | UO-31 64.7 µM | U-251 > 100 µM | SK-MEL-2 > 100 µM | SF-539 > 100 µM
